Source: patent publication US8889689B2, “Bifunctional metnase/intnase inhibitors and related compositions and methods of treatment of cancer” (STC.UNM, priority 2010, dated 2014)
Entries after “also recorded” stand apart in the source; their conditions may differ.

Tests used:
Raji leukemia cells = test: Cytotoxicity / proliferation at varying concentrations vs vehicle control; type: cell-based
Experimental: (§1) In separate experiments, the bifunctional Metnase inhibitor, 4h-new3 (see FIGS. 4 and 43) and the monofunctional Metnase inhibitor 4h (FIG. 1 and FIG. 43), were tested at varying concentrations to determine cytotoxic activity in Raji leukemia eels and MCI-H929 myeloma cells. The compounds were tested against vehicle control at varying concentrations in the above-described cancer cell lines.

NCI-H929 myeloma cells = test: as above; type: cell-based
Experimental: as §1

A549 lung cancer cells = test: Colony formation assay, alone or in combination with cisplatin
KG-1 leukemia cells = test: KG-1 cell survival and proliferation (trypan blue counts), alone or with VP-16; type: cell-based, human; settings: KG-1 cells
Text: KG-1 cells are a human acute myeloid leukemia cell line established from a patient with acute myelogenous leukemia that had evolved from an erythroleukemia. Cytotoxicity of etoposide, a semisynthetic derivative of podophyllotoxin that also is called Vepesid (Bristol; code designation VP-16-213, abbreviated VP-16), is mediated by its interaction with DNA topoisomerase II (Topo II), an ATP-dependent nuclear enzyme that regulates DNA topology by transiently breaking and rejoining double-stranded DNA to allow DNA strand passage. Under normal conditions, the formation of a DNA strand break by Topo II is followed by precise realignment and resealing of the broken ends.
The human myeloid cell line KG-1 was grown in RPMI1640 with 10% FBS. The small cell lung cancer cell line CRL5898 was grown in HITES medium (Dulbecco's medium:Ham's F12, 50:50 mix, Insulin 0.005 mg/ml Transferrin 0.01 mg/ml Sodium selenite 30 nM Hydrocortisone 10 nM beta-estradiol 10 nM HEPES 10 mM L-glutamine 2 mM (in addition to that in the base medium)). Both cell lines were seeded at 10,000 cells/ml in the appropriate medium in 6 well plates. The Chem Div compounds were resuspended as 5 mM stock solutions in DMSO. […] Cells were plated and treated in triplicate and counted daily for 4 days in trypan blue to assess survival and proliferation.

[1] = A549, compound constantly present, cisplatin present for a shorter period
[2] = A549, compound present for 24 hours at the beginning then removed

CC(C)n1cc(C(=O)O)c(=O)c2ccc(C(=O)c3ccc(CN(CCCl)CCCl)cc3)cc21 [4H_new3]
level at which proliferation is decreased (Raji leukemia cells): below 1 μM | decrease of cancer cell proliferation compared with monofunctional inhibitor 4h (Raji leukemia cells; varying concentrations): significantly more effective at decreasing cancer cell proliferation | level at which proliferation is decreased (NCI-H929 myeloma cells): below 1 μM | decrease of cancer cell proliferation compared with monofunctional inhibitor 4h (NCI-H929 myeloma cells; varying concentrations): significantly more effective at decreasing cancer cell proliferation

Cn1c(CCCC(=O)N2CCN(c3cc4c(cc3F)c(=O)c(C(=O)O)cn4C3CC3)CC2)nc2cc(N(CCCl)CCCl)ccc21 [WW-01]
cytotoxicity of compound compared with cisplatin (A549 lung cancer cells; [1]): significantly greater activity than cisplatin | effect against colony survival, in combination with cisplatin (A549 lung cancer cells; [1]): especially active in combination with cisplatin at higher concentrations

CC(C)n1cc(C(=O)O)c(=O)c2ccccc21 [5483-0023]
cytotoxic activity / proliferation, compound on its own (KG-1 leukemia cells; compound alone): has cytotoxic activity on its own; also recorded: Decreases Proliferation of KG-1 Cells on its Own | potentiation of cytotoxic activity of VP-16 (KG-1 leukemia cells; in combination with VP-16): increases the cytotoxic activity of the anti-cancer drug VP-16; also recorded: Potentiates VP-16

O=C(O)c1cn(C2CC2)c2cc(N3CCN(C(=O)CCCc4ccc(N(CCCl)CCCl)cc4)CC3)c(F)cc2c1=O [WW-10]
cytotoxicity of compound compared with cisplatin (A549 lung cancer cells; A549, compound present 24 hours, cisplatin at higher concentration, shorter period): greater colony forming cell cytotoxicity than did cisplatin present at a higher concentration | effect against colony survival, compound alone (A549 lung cancer cells; [2]): significant dose dependent effect against colony survival | effect against colony survival, in combination with cisplatin (A549 lung cancer cells; [2]): especially active in combination with cisplatin at higher concentrations; also recorded: significant dose dependent effect against colony survival
